The text below walks through data of PMC2528830 (British Journal of Pharmacology, 2008).

Test [1] concerns the target T1, GPR119 (Homo sapiens, UniProt Q8TDV5).
T1 sequence (Q8TDV5 1-335): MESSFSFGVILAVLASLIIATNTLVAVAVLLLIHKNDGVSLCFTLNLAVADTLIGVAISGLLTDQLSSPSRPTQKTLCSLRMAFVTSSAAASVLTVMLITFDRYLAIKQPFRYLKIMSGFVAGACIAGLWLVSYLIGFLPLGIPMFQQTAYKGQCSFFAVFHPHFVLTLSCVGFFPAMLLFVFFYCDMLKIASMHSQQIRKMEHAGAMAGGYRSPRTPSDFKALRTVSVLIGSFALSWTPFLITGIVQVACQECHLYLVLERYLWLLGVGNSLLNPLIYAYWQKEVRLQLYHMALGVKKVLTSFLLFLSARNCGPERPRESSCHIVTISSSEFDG
Description: cAMP accumulation in HEK293-GPR119 vs untransfected cells. The format is cell-based. (Cyclic AMP is a second messenger, typically raised through Gs and lowered through Gi signalling.)

Test [2] has as its target T1, GPR119. In words: insulin secretion at […] in RINm5f-GPR119 vs parental RINm5f cells. It is filed as cell-based.

In general, EC50 refers to the concentration that produces a half-maximal response. Read a high EC50 as a need for much substance. Turning to `CCCC[C@H]1CC[C@H](c2nc(-c3ccncc3)no2)CC1` [PSN375963], the EC50 on GPR119 [1] was found to be 13.9 µM.

With `CCCCCCCC/C=C\CCCCCCCC(=O)NCCO` [oleoylethanolamide], the “insulin secretion at 10 μM in RINm5f-GPR119 vs parental RINm5f cells” value on GPR119 [2] was “RINm5f cells transfected with human GPR119 (RIN-119 cells) responded to OEA and had an increased response to OLPC”.
